pIC50: −log10 of the molar value.
System: PANC-1 complex spheroid growth, percent test/control
Experiment: Anticancer human tumor PANC-1 cell line growth inhibition [Asc];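 also: spheroids exposed to agents for 7 days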;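 as to viability, T/C: percent viability relative to DMSO vehicle wells taken as 100%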
Conditions: for pIC50: curve of first compound; for viability, T/C: stronger effect = lower value; active = viability on the fitted dose curve at most 10% of control; inactive = the rest
Summary of the method: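 Spheroid model: tumor line + HUVEC + hMSC. Single agents and combinations; top conc. at/near clinical Cmax (10 microM if undetermined), half-log dilutions. DMSO stocks at 800-fold test concentration.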

Cn1ncnc1[C@H]1c2n[nH]c(=O)c3cc(F)cc(c23)N[C@@H]1c1ccc(F)cc1 + CNC(C)C(=O)NC1CN(S(=O)(=O)c2cccc(S(=O)(=O)N3CCC4CCC(C(=O)NC(c5ccccc5)c5ccccc5)N4C(=O)C(NC(=O)C(C)NC)C3)c2)CCC2CCC(C(=O)NC(c3ccccc3)c3ccccc3)N2C1=O
< 7.00: pIC50 (second compound 0.00316 µM) | pIC50 (second compound 0.01 µM) | pIC50 (second compound 0.0316 µM) | pIC50 (second compound 0.1 µM) | pIC50 (second compound 0.316 µM) | pIC50 (second compound 1 µM)
inactive: viability, T/C (second compound 0.00316 µM, first compound 0.000316 µM) 110% | viability, T/C (second compound 0.00316 µM, first compound 0.001 µM) 117% | viability, T/C (second compound 0.00316 µM, first compound 0.00316 µM) 128% | viability, T/C (second compound 0.00316 µM, first compound 0.01 µM) 114% | viability, T/C (second compound 0.00316 µM, first compound 0.0316 µM) 113% | viability, T/C (second compound 0.00316 µM, first compound 0.1 µM) 109% | viability, T/C (second compound 0.01 µM, first compound 0.000316 µM) 105% | viability, T/C (second compound 0.01 µM, first compound 0.001 µM) 108% | viability, T/C (second compound 0.01 µM, first compound 0.00316 µM) 99.6% | viability, T/C (second compound 0.01 µM, first compound 0.01 µM) 117% | viability, T/C (second compound 0.01 µM, first compound 0.0316 µM) 110% | viability, T/C (second compound 0.01 µM, first compound 0.1 µM) 111% | viability, T/C (second compound 0.0316 µM, first compound 0.000316 µM) 96.8% | viability, T/C (second compound 0.0316 µM, first compound 0.001 µM) 92.8% | viability, T/C (second compound 0.0316 µM, first compound 0.00316 µM) 96.6% | viability, T/C (second compound 0.0316 µM, first compound 0.01 µM) 109% | viability, T/C (second compound 0.0316 µM, first compound 0.0316 µM) 108% | viability, T/C (second compound 0.0316 µM, first compound 0.1 µM) 113% | viability, T/C (second compound 0.1 µM, first compound 0.000316 µM) 94.3% | viability, T/C (second compound 0.1 µM, first compound 0.001 µM) 102% | viability, T/C (second compound 0.1 µM, first compound 0.00316 µM) 97.3% | viability, T/C (second compound 0.1 µM, first compound 0.01 µM) 101% | viability, T/C (second compound 0.1 µM, first compound 0.0316 µM) 109% | viability, T/C (second compound 0.1 µM, first compound 0.1 µM) 115% | viability, T/C (second compound 0.316 µM, first compound 0.000316 µM) 109% | viability, T/C (second compound 0.316 µM, first compound 0.001 µM) 98.4% | viability, T/C (second compound 0.316 µM, first compound 0.00316 µM) 97.5% | viability, T/C (second compound 0.316 µM, first compound 0.01 µM) 99.6% | viability, T/C (second compound 0.316 µM, first compound 0.0316 µM) 111% | viability, T/C (second compound 0.316 µM, first compound 0.1 µM) 102% | viability, T/C (second compound 1 µM, first compound 0.000316 µM) 87.3% | viability, T/C (second compound 1 µM, first compound 0.001 µM) 107% | viability, T/C (second compound 1 µM, first compound 0.00316 µM) 111% | viability, T/C (second compound 1 µM, first compound 0.01 µM) 99% | viability, T/C (second compound 1 µM, first compound 0.0316 µM) 95.5% | viability, T/C (second compound 1 µM, first compound 0.1 µM) 102%

Reference: PubChem BioAssay AID1963435 (Molecular Pharmacology Branch, DTP, NCI, 2024)
